Measured values: patent publication US20260042731A1, “(2,4-DICHLOROPHENOXY)ACETIC ACID ANALOGS” (CORTEVA AGRISCIENCE LLC, priority 2022, published 2026)
Like-named read-outs stand apart in the source and are kept apart here.

Key:
[1] = system: Amaranthus rudis (AMATA), tall water hemp; experiment: Postemergence herbicide evaluation, growth of Amaranthus rudis (AMATA); format: in vivo; settings: Amaranthus tuberculatus, post-emergence, percent reduction in plant size vs untreated control, read-out: Ave. AMATA; for pest or weed control at 280 g/ha: 280 g ae/ha; for pest or weed control at 560 g/ha: 560 g ae/ha
[2] = system: glyphosate resistant Conyza canadensis (L.) (ERICA), horseweed; experiment: Postemergence herbicide evaluation, growth of Conyza canadensis (ERICA); format: in vivo; settings: Erigeron canadensis, post-emergence, percent reduction in plant size vs untreated control, read-out: Ave. ERICA; for pest or weed control at 280 g/ha: 280 g ae/ha; for pest or weed control at 560 g/ha: 560 g ae/ha
Corn (ZEAMX) = experiment: Greenhouse post-emergence mixture trials, percent visual control; format: in vivo; settings: ZEAMX, 21 DAA, no mixing partner; for % Control / plant injury at 560 g/ha: compound 560 g ae/ha
[3] = system: Ambrosia artemisiifolia (AMBEL), common ragweed; experiment: Postemergence herbicide evaluation, growth of Ambrosia artemisiifolia (AMBEL); format: in vivo; settings: Ambrosia artemisiifolia, post-emergence, percent reduction in plant size vs untreated control, read-out: AVE. AMBEL; for pest or weed control at 280 g/ha: 280 g ae/ha; for pest or weed control at 560 g/ha: 560 g ae/ha
[4] = system: weeds ABUTH, AMATA, AMBEL, CHEAL, ERICA; experiment: Postemergence herbicide evaluation, overall average % weed control across ABUTH, AMATA, AMBEL, CHEAL and ERICA; format: in vivo; settings: post-emergence, average over five weeds, read-out: Overall Ave % Weed Control; for pest or weed control at 280 g/ha: 280 g ae/ha; for pest or weed control at 560 g/ha: 560 g ae/ha
[5] = Volatility of compounds measured by thermogravimetric analysis (TGA); format: physicochemical
[6] = system: Chenopodium album (CHEAL), common lambsquarters; experiment: Postemergence herbicide evaluation, growth of Chenopodium album (CHEAL); format: in vivo; settings: Chenopodium album, post-emergence, percent reduction in plant size vs untreated control, read-out: Ave. CHEAL; for pest or weed control at 280 g/ha: 280 g ae/ha; for pest or weed control at 560 g/ha: 560 g ae/ha
[7] = system: Abutilon theophrasti (ABUTH), velvetleaf; experiment: Postemergence herbicide evaluation, growth of Abutilon theophrasti (ABUTH); format: in vivo; settings: Abutilon theophrasti, post-emergence, percent reduction in plant size vs untreated control, read-out: AVE. ABUTH; for pest or weed control at 280 g/ha: 280 g ae/ha; for pest or weed control at 560 g/ha: 560 g ae/ha
[8] = system: Common Lambsquarters (CHEAL); experiment: Greenhouse post-emergence mixture trials, percent visual control; format: in vivo; settings: CHEAL, 21 DAA; for pest or weed control at 560 g/ha / pest or weed control at 1120 g/ha: Chenopodium album, post-emergence, 504 h, no mixing partner; for pest or weed control at 1120 g/ha: read-out: % Control
Velvetleaf (ABUTH) = experiment: as above; format: in vivo; settings: ABUTH, 21 DAA; for pest or weed control at 560 g/ha / pest or weed control at 1120 g/ha: Abutilon theophrasti, post-emergence, 504 h; for pest or weed control at 560 g/ha: compound 560 g ae/ha; for pest or weed control at 1120 g/ha: compound 1120 g ae/ha, read-out: % Control
[9] = Trial Bridge 2, compound 560 g ae/ha + Saflufenacil 25 g ai or ae/ha
[10] = Trial Bridge 2, compound 560 g ae/ha + Saflufenacil 75 g ai or ae/ha
[11] = Trial Bridge 2, compound 560 g ae/ha + Trifludimoxazin 12.5 g ai or ae/ha
[12] = Trial Bridge 2, compound 560 g ae/ha + Trifludimoxazin 50 g ai or ae/ha
[13] = Trial Bridge 2, compound 1120 g ae/ha + Saflufenacil 25 g ai or ae/ha
[14] = Trial Bridge 2, compound 1120 g ae/ha + Saflufenacil 75 g ai or ae/ha
[15] = Trial Bridge 2, compound 1120 g ae/ha + Trifludimoxazin 12.5 g ai or ae/ha
[16] = Trial Bridge 2, compound 1120 g ae/ha + Trifludimoxazin 50 g ai or ae/ha
[17] = Trial Bridge 1, compound 560 g ae/ha + Arylex 5 g ai or ae/ha
[18] = Trial Bridge 1, compound 560 g ae/ha + Mesotrione 150 g ai or ae/ha
[19] = Trial Bridge 1, compound 1120 g ae/ha + Arylex 5 g ai or ae/ha
[20] = Trial Bridge 1, compound 1120 g ae/ha + Glufosinate 600 g ai or ae/ha
[21] = Trial Bridge 1, compound 1120 g ae/ha + Mesotrione 150 g ai or ae/ha
[22] = no mixing partner, Trial Bridge 3
[23] = Trial Bridge 1, mixing partner none
[24] = Trial Bridge 2, no mixing partner

O=C(COc1ccc(Cl)cc1Cl)Nc1cccnc1 [Compound D27]
pest or weed control at 280 g/ha ([1]; 168 h, 7 DAA): 80% | pest or weed control at 560 g/ha ([1]; 168 h, 7 DAA): 92% | pest or weed control at 280 g/ha ([1]; 336 h, 14 DAA): 92.5% | pest or weed control at 560 g/ha ([1]; 336 h, 14 DAA): 90% | pest or weed control at 280 g/ha ([1]; 504 h, 21 DAA): 85% | pest or weed control at 560 g/ha ([1]; 504 h, 21 DAA): 100% | pest or weed control at 280 g/ha ([2]; 168 h, 7 DAA): 67.5% | pest or weed control at 560 g/ha ([2]; 168 h, 7 DAA): 85% | pest or weed control at 280 g/ha ([2]; 336 h, 14 DAA): 100% | pest or weed control at 560 g/ha ([2]; 336 h, 14 DAA): 100% | pest or weed control at 280 g/ha ([2]; 504 h, 21 DAA): 98.5% | pest or weed control at 560 g/ha ([2]; 504 h, 21 DAA): 99% | % Control (Corn (ZEAMX); Trial Bridge 1): 5% | % Control (Corn (ZEAMX); Trial Bridge 3): 5% | plant injury at 560 g/ha (Corn (ZEAMX); Zea mays, post-emergence, 504 h, Trial Bridge 1): 5% | plant injury at 560 g/ha (Corn (ZEAMX); Zea mays, post-emergence, 504 h, Trial Bridge 3): 5% | plant injury at 1120 g/ha (Corn (ZEAMX); Zea mays, post-emergence, 504 h, compound 1120 g ae/ha, Trial Bridge 3): 5% | pest or weed control at 280 g/ha ([3]; 168 h, 7 DAA): 85% | pest or weed control at 560 g/ha ([3]; 168 h, 7 DAA): 85% | pest or weed control at 280 g/ha ([3]; 336 h, 14 DAA): 77.5% | pest or weed control at 560 g/ha ([3]; 336 h, 14 DAA): 99% | pest or weed control at 280 g/ha ([3]; 504 h, 21 DAA): 100% | pest or weed control at 560 g/ha ([3]; 504 h, 21 DAA): 100% | pest or weed control at 280 g/ha ([4]; 168 h, 7 DAA): 78% | pest or weed control at 560 g/ha ([4]; 168 h, 7 DAA): 84.4% | pest or weed control at 280 g/ha ([4]; 336 h, 14 DAA): 87.3% | pest or weed control at 560 g/ha ([4]; 336 h, 14 DAA): 97% | pest or weed control at 280 g/ha ([4]; 504 h, 21 DAA): 94.9% | pest or weed control at 560 g/ha ([4]; 504 h, 21 DAA): 99.3% | TGA Data (rate of weight loss, volatility) [5]: 0.01 µg/min | pest or weed control at 280 g/ha ([6]; 168 h, 7 DAA): 82.5% | pest or weed control at 560 g/ha ([6]; 168 h, 7 DAA): 80% | pest or weed control at 280 g/ha ([6]; 336 h, 14 DAA): 85% | pest or weed control at 560 g/ha ([6]; 336 h, 14 DAA): 97.5% | pest or weed control at 280 g/ha ([6]; 504 h, 21 DAA): 94% | pest or weed control at 560 g/ha ([6]; 504 h, 21 DAA): 97.5% | pest or weed control at 280 g/ha ([7]; 168 h, 7 DAA): 75% | pest or weed control at 560 g/ha ([7]; 168 h, 7 DAA): 80% | pest or weed control at 280 g/ha ([7]; 336 h, 14 DAA): 81.5% | pest or weed control at 560 g/ha ([7]; 336 h, 14 DAA): 98.5% | pest or weed control at 280 g/ha ([7]; 504 h, 21 DAA): 97% | pest or weed control at 560 g/ha ([7]; 504 h, 21 DAA): 100% | % Control [8, 9]: 100% | % Control [8, 10]: 100% | % Control [8, 11]: 100% | % Control [8, 12]: 100% | % Control [8, 13]: 100% | % Control [8, 14]: 100% | % Control [8, 15]: 100% | % Control [8, 16]: 100% | % Control ([8]; Trial Bridge 3, compound 560 g ae/ha + Sulfentrazone 130 g ai/ha): 100% | % Control ([8]; Trial Bridge 3, compound 560 g ae/ha + Sulfentrazone 347 g ai/ha): 100% | % Control ([8]; Trial Bridge 3, compound 1120 g ae/ha + Sulfentrazone 130 g ai/ha): 100% | % Control ([8]; Trial Bridge 3, compound 1120 g ae/ha + Sulfentrazone 347 g ai/ha): 100% | pest or weed control at 560 g/ha ([8]; Trial Bridge 2, compound 560 g ae/ha): 95% | pest or weed control at 1120 g/ha ([8]; Trial Bridge 2, compound 1120 g ae/ha): 98% | pest or weed control at 560 g/ha ([8]; Trial Bridge 3, compound 560 g ae/ha): 95% | pest or weed control at 1120 g/ha ([8]; Trial Bridge 3, compound 1120 g ae/ha): 100% | pest or weed control at 560 g/ha ([8]; Trial Bridge 1, compound 560 g ae/ha): 98% | pest or weed control at 1120 g/ha ([8]; Trial Bridge 1, compound 1120 g ae/ha): 100% | % Control [8, 17]: 100% | % Control [8, 18]: 100% | % Control [8, 19]: 100% | % Control [8, 20]: 100% | % Control [8, 21]: 100% | % Control (Velvetleaf (ABUTH); compound 560 g ae/ha + Sulfentrazone 347 g ai/ha, Trial Bridge 3): 100% | % Control (Velvetleaf (ABUTH); compound 1120 g ae/ha + Sulfentrazone 130 g ai/ha, Trial Bridge 3): 100% | % Control (Velvetleaf (ABUTH); compound 1120 g ae/ha + Sulfentrazone 347 g ai/ha, Trial Bridge 3): 100% | pest or weed control at 560 g/ha (Velvetleaf (ABUTH); [22]): 100% | pest or weed control at 1120 g/ha (Velvetleaf (ABUTH); [22]): 99% | pest or weed control at 560 g/ha (Velvetleaf (ABUTH); [23]): 100% | pest or weed control at 1120 g/ha (Velvetleaf (ABUTH); [23]): 100% | pest or weed control at 560 g/ha (Velvetleaf (ABUTH); [24]): 100% | pest or weed control at 1120 g/ha (Velvetleaf (ABUTH); [24]): 100% | % Control (Velvetleaf (ABUTH); [17]): 100% | % Control (Velvetleaf (ABUTH); Trial Bridge 1, compound 560 g ae/ha + Glufosinate 600 g ai or ae/ha): 100% | % Control (Velvetleaf (ABUTH); Trial Bridge 1, compound 560 g ae/ha + Glyphosate 1120 g ai or ae/ha): 100% | % Control (Velvetleaf (ABUTH); [18]): 100% | % Control (Velvetleaf (ABUTH); Trial Bridge 1, compound 560 g ae/ha + diclosulam 35 g ai or ae/ha): 100% | % Control (Velvetleaf (ABUTH); [19]): 100% | % Control (Velvetleaf (ABUTH); [20]): 100% | % Control (Velvetleaf (ABUTH); Trial Bridge 1, compound 1120 g ae/ha + Glyphosate 1120 g ai or ae/ha): 100% | % Control (Velvetleaf (ABUTH); [21]): 100% | % Control (Velvetleaf (ABUTH); Trial Bridge 1, compound 1120 g ae/ha + diclosulam 35 g ai or ae/ha): 100% | % Control (Velvetleaf (ABUTH); [9]): 100% | % Control (Velvetleaf (ABUTH); [10]): 100% | % Control (Velvetleaf (ABUTH); [11]): 100% | % Control (Velvetleaf (ABUTH); [12]): 100% | % Control (Velvetleaf (ABUTH); [13]): 100% | % Control (Velvetleaf (ABUTH); [14]): 100% | % Control (Velvetleaf (ABUTH); [15]): 100% | % Control (Velvetleaf (ABUTH); [16]): 100%
